The subject of experiment [1] is Parachlamydia acanthamoebae. Description: Antimicrobial activity against Parachlamydia acanthamoebae infected in Acanthamoeba castellanii amoeba cells. Format: functional.
A short description of experiment [2]: Antimicrobial activity against Waddlia chondrophila ATCC VR-1470 infected in Acanthamoeba castellanii amoeba cells. In kind it is functional, Waddlia chondrophila WSU 86-1044.
A short description of experiment [3]: Antimicrobial activity against Waddlia chondrophila ATCC VR-1470 infected in Vero cells. Format: functional, Waddlia chondrophila WSU 86-1044.
Experiment [4] deals with Chlamydia pneumoniae. Description: Antimicrobial activity against Chlamydophila pneumoniae infected in Vero cells. Format: functional.
Experiment [5] in a line: Antimicrobial activity against Waddlia chondrophila 2032/99 infected in Acanthamoeba castellanii amoeba cells. In kind it is functional.
The test system of experiment [6] is Chlamydia trachomatis. Description: Antimicrobial activity against Chlamydia trachomatis infected in Vero cells. In kind it is functional.
Experiment [7] deals with Chlamydophila psittaci. Description: Antimicrobial activity against Chlamydophila psittaci infected in Vero cells. In kind it is functional. The settings on record: Chlamydia psittaci.

Converted amounts (≈) assume the structure as drawn.

What is called MIC is the least concentration at which growth counts as inhibited. Read a low MIC as greater potency.

`CC1(C)S[C@@H]2[C@H](NC(=O)[C@H](N)c3ccc(O)cc3)C(=O)N2[C@H]1C(=O)O` [AMOXICILLIN] returned an MIC in experiment [1] of over 32 µg/mL.

For the compound `CC1(C)S[C@@H]2[C@H](NC(=O)[C@H](N)c3ccccc3)C(=O)N2[C@H]1C(=O)O` [AMPICILLIN], the MIC is over 32 µg/mL in experiment [2], over 32 µg/mL in experiment [3] and over 100 µg/mL in experiment [4].

For `CC[C@H]1OC(=O)[C@H](C)[C@@H](O[C@H]2C[C@@](C)(OC)[C@@H](O)[C@H](C)O2)[C@H](C)[C@@H](O[C@@H]2O[C@H](C)C[C@H](N(C)C)[C@H]2O)[C@](C)(O)C[C@@H](C)CN(C)[C@H](C)[C@@H](O)[C@]1(C)O` [AZITHROMYCIN], the MIC in experiment [2] stood at 0.06 µg/mL (≈ 0.0801 µM); in experiment [5], 0.06 µg/mL (≈ 0.0801 µM); in experiment [3], 0.25 µg/mL (≈ 0.334 µM); in experiment [6], 0.125 µg/mL (≈ 0.167 µM); in experiment [4], 0.06 µg/mL (≈ 0.0801 µM); in experiment [7], 0.125 µg/mL (≈ 0.167 µM).

In the case of `CO/N=C(\C(=O)N[C@@H]1C(=O)N2C(C(=O)O)=C(CSc3nc(=O)c(O)nn3C)CS[C@H]12)c1csc(N)n1` [CEFTRIAXONE], the MIC in experiment [2], in experiment [3], in experiment [1] and in experiment [6] was over 32 µg/mL in each case.

Turning to `O=C(O)c1cn(C2CC2)c2cc(N3CCNCC3)c(F)cc2c1=O` [CIPROFLOXACIN], the minimal inhibitory concentration (MIC) in experiment [2] was over 16 µg/mL; in experiment [3], over 16 µg/mL; in experiment [1], over 16 µg/mL; in experiment [6], 0.5 µg/mL (≈ 1.51 µM); in experiment [4], 1 µg/mL (≈ 3.02 µM); in experiment [7], 1 µg/mL (≈ 3.02 µM).

In the case of `C[C@H]1c2cccc(O)c2C(=O)C2=C(O)[C@]3(O)C(=O)C(C(N)=O)=C(O)[C@@H](N(C)C)[C@@H]3[C@@H](O)[C@@H]21.O` [DOXYCYCLINE], the MIC in experiment [2] came out at 4 µg/mL; in experiment [5], 1 µg/mL; in experiment [3] it was 0.25 µg/mL; in experiment [1], 0.5 µg/mL; in experiment [6], 0.03 µg/mL; in experiment [4] it was 0.03 µg/mL. This compound had an MIC in experiment [7] of 0.03 µg/mL.

Consider `CC1COc2c(N3CCN(C)CC3)c(F)cc3c(=O)c(C(=O)O)cn1c23` (stereo not drawn) [OFLOXACIN], for which the MIC in experiment [2] is over 16 µg/mL; in experiment [3], over 16 µg/mL; in experiment [1], over 16 µg/mL; in experiment [6], 0.5 µg/mL (≈ 1.38 µM); in experiment [4], 0.5 µg/mL (≈ 1.38 µM); in experiment [7] it was 0.5 µg/mL (≈ 1.38 µM).

The record behind these values is ChEMBL document CHEMBL1649457, “Antibiotic susceptibility of Waddlia chondrophila in Acanthamoeba castellanii amoebae” (2009).
